Measured values published in patent US20260076939A1, “CHIRAL GAMMA LACTAM DERIVATIVE OR PHARMACEUTICALLY ACCEPTABLE SALT THEREOF, AND PREPARATION METHOD THEREFOR” (Korea University Research and Business Foundation, priority 2022, published 2026).
Where a name gives a salt, the structure may show the parent alone.

What was measured:
[1] = system: Parkinson's disease mouse MPTP model; test: Forced swim test (FST); format: in vivo; conditions: MPTP mice, FIG. 8; for immobility time in the forced swim test: ip 30 minutes before the test, compared to the MPTP alone treatment group
Protocol: (§1) Six-month-old normal mice were acclimated for one week, trained for behavioral testing, and then randomly divided into groups. To construct a Parkinson's disease mouse MPTP model, mice were treated with the chiral gamma-lactam derivative of the present disclosure or a pharmaceutically acceptable salt thereof (dissolved in 0.9% saline, intraperitoneally injected (ip)) for 3 days, and then were treated with MPTP (dissolved in 0.9% saline, ip) for 5 consecutive days. […] For the control mice group, the same volume of saline solution (ip) was provided. Two days after the last injection, the efficacy was confirmed by an open field test (OFT), forced swim test (FST), rotarod test, and pilocarpine-induced seizure evaluation.
The forced swim test (FST) was performed to induce depressive behavior in mice. (1) First, a 2 L beaker was filled with water (25±1° C.) until the water was about 10 cm deep, and the mouse was allowed to swim. The mouse was returned to the breeding cage after 6 minutes. (2) The restraint stress group was confined in a restraint tube for 90 minutes until 60 minutes before the forced swim test was to be performed, and then the mouse was allowed to swim as mentioned in (1). Thereafter, the mouse was returned to the breeding cage. (3) In this case, the chiral gamma-lactam derivative of the present disclosure or a pharmaceutically acceptable salt thereof (saline, test drug) was injected into the abdominal cavity 30 minutes before the forced swim test was performed. Immobility time was measured for 4 minutes out of the 6 minutes and these measurements were compared between groups.

[2] = system: SYP (synaptophysin); test: mRNA expression by real-time PCR in MPTP-treated SH-SY5Y cells: SYP; format: cell-based, human; conditions: 2.5 mM MPTP, compared to MPTP alone, FIG. 6(a)
Protocol: (§2) After inducing an inflammatory response by treating a human neuroblastoma SH-SY5Y cell line with 2.5 mM MPTP (1-methyl-4-phenyl-1,2,3,6-tetrahydropyridine), the mRNA expression of SYP (synaptophysin), GAP-43 (Growth-associated protein-43), MAO-B (Monoamine oxidase-B), and iNOS (inducible nitric oxide synthase) was confirmed by real-time PCR.

[3] = system: SMAD3; test: Human skeletal myoblast (HSKM) differentiation induction test, ELISA: SMAD3; format: cell-based; conditions: compared to (R)-phenylpiracetam treatment group, FIG. 5(b)
Protocol: (§3) For the human skeletal myoblast (HSKM) differentiation induction test, human skeletal myoblasts (3×10^5 cells/well) were prepared in 24-well plates. Then, these cells were treated with the test substances and incubated in a 37° C., CO2 incubator for 48 hours. After 24 and 48 hours of incubation, the cell culture supernatant was collected into an E-tube and stored in a deep freezer. For ELISA analysis, the supernatant was thawed and prepared. ELISA analysis was performed based on the test method presented in the ELISA kit.

[4] = system: GAP-43 (Growth-associated protein-43); test: mRNA expression by real-time PCR in MPTP-treated SH-SY5Y cells: GAP-43; format: cell-based, human; conditions: 2.5 mM MPTP, compared to MPTP alone, FIG. 6(a)
Protocol: as §2

[5] = system: GDF-8/Myostatin; test: Expression of the sarcopenia-related marker GDF-8/Myostatin in mouse serum; format: in vivo; conditions: MPTP mice, 15 mg/kg ip twice a week for 5 weeks, FIG. 11; for expression level of GDF-8/Myostatin in mouse serum: compared to IGF-1 and (R)-phenylpiracetam treatment groups
Protocol: MPTP was injected intraperitoneally into the mouse at a concentration of 30 mg/kg for 5 consecutive days. One week after the MPTP was injected, the chiral gamma-lactam derivative of the present disclosure or a pharmaceutically acceptable salt thereof (Ph-10, 20, 30) was administered intraperitoneally to the mouse at a concentration of 15 mg/kg twice a week, for 5 weeks, and the changes in the expression level of GDF-8/Myostatine, a sarcopenia-related marker in mouse serum, were determined.

[6] = system: Parkinson's disease mouse MPTP model; test: Rotarod test (latency to fall), 5 weeks; format: in vivo; conditions: MPTP mice; for motility in the rotarod test (latency to fall): compared to the control group and the MPTP alone treatment group, FIG. 9(a)
Protocol: as §1
(§4) To evaluate the walking and motor abilities of the lower extremities of mice, a rotarod test was performed for 5 weeks. Motor coordination and balance were assessed by placing the mice on a rotating bar and measuring the time until they fell therefrom (latency to fall). MPTP was injected intraperitoneally into the mice at a concentration of 30 mg/kg for 5 consecutive days. One week after the MPTP was injected, MPTP was administered to the mice intraperitoneally (15 mg/kg) twice a week. The rotarod consists of a rotatable cylindrical rod with a diameter of 7 cm, located at a height of 60 cm and six baffles spaced at 15 cm intervals. Then, mice were placed on the rod while the rod was rotated for 180 seconds at a speed of 5 to 50 rpm (maximum speed) and the latency to fall was measured. At this time, the mice were sufficiently trained to be acclimated during the experimental period.

[7] = system: Parkinson's disease mouse MPTP model; test: Open field test (OFT); format: in vivo, mice; conditions: for total distance moved in the open field test: 10 mg/kg, compared to (R)-phenylpiracetam, MPTP alone and Selegiline treatment groups
Protocol: as §1
To measure general motor activity levels and behavioral anxiety of the mice, an open field test was performed. (1) First, 30 minutes before performing the open field test, the chiral gamma-lactam derivative of the present disclosure or a pharmaceutically acceptable salt thereof and a vehicle (saline, test drug) were injected intraperitoneally to the mice and their behavior was video recorded for 10 minutes. (2) Video analysis was used to check for sedation and measure the distance the mice moved.

[8] = system: HEK293T cell line; test: Intracellular Ca2+ concentration by confocal laser scanning microscopy (CLSM), Fluo-3-AM; format: cell-based, human; conditions: HEK293T cells; for Ca2+ release performance: compared to the control rasagiline and the comparator (R)-phenylpiracetam, FIGS. 2 and 3
Protocol: To detect intracellular Ca^2+ levels, the HEK293T cell line, human renal epithelial cells, were seeded in 35 mm diameter confocal dishes 24 hours before the experiment and then were cultured to 40-60% confluency. The cells were loaded with […] fluorescent […] calcium indicator Fluo-3-acetoxymethyl (Fluo-3-AM; Invitrogen) for 30 min at 37° C. The concentration of Ca^2+ was determined using CLSM (Zeiss LSM 700 Meta; Zeiss, Oberkochen, Germany). […] The excitation and emission wavelengths for signal detection were 488 nm and 515 nm, respectively. Analysis of intracellular calcium intensity was performed using Zen software (Carl Zeiss).

[9] = system: MAO-B (Monoamine oxidase-B); test: mRNA expression by real-time PCR in MPTP-treated SH-SY5Y cells: MAO-B; format: cell-based, human; conditions: 2.5 mM MPTP, compared to MPTP alone, FIG. 6(a)
Protocol: as §2

[10] = system: tibialis anterior (TA) and extensor digitorum longus (EDL) muscle; test: Muscle weight after the five-week rotarod test; format: in vivo; conditions: MPTP mice, after five weeks; for tibialis anterior (TA) muscle weight: FIG. 9(b); for extensor digitorum longus (EDL) muscle weight: FIG. 9(c)
Protocol: as §4

[11] = system: iNOS (inducible nitric oxide synthase); test: mRNA expression by real-time PCR in MPTP-treated SH-SY5Y cells: iNOS; format: cell-based, human; conditions: 2.5 mM MPTP, compared to MPTP alone, FIG. 6(a)
Protocol: as §2

[12] = system: SMAD2; test: Human skeletal myoblast (HSKM) differentiation induction test, ELISA: SMAD2; format: cell-based; conditions: compared to (R)-phenylpiracetam treatment group, FIG. 5(a)
Protocol: as §3

[13] = system: GDF-8/Myostatin; test: Human skeletal myoblast (HSKM) differentiation induction test, ELISA of culture supernatant: GDF-8/Myostatin; format: cell-based; conditions: compared to IGF-1 and (R)-phenylpiracetam treatment groups, FIG. 4
Protocol: as §3

[14] = system: pilocarpine-induced seizure mouse model; test: Evaluation of pilocarpine-induced seizures; format: in vivo; conditions: male C57BL/6J mice, 15 mg ip 25 minutes before pilocarpine 330 mg/kg, monitored for 24 hours; compared to the control group; FIG. 10
Protocol: A pilocarpine-induced seizure mouse model was created to study changes in brain activity. Pilocarpine is an agonist that binds to muscarinic cholinergic receptors in nerve cells and increases cell activity, and is used to create a mesial temporal lobe epilepsy model.
The present experiment was performed on surgically operated-on male C57BL/6J mice under a constant environmental condition (24-25° C., 50-60% humidity, 12-hour light/dark cycle). […] Pilocarpine (Sigma, Deisenhofen, Germany) was injected intraperitoneally into the mouse at a single dose of 330 mg/kg, and behavioral and electrophysiological seizure patterns were monitored for 24 hours. […]
The seizure patterns were divided into the following five types, and cases (4) and (5) were defined as convulsive seizures and analyzed for their frequency and duration: (0) no convulsive behavior; (1) facial clonus; (2) head nodding; (3) forelimb clonus; (4) rearing: animal in a standing posture aided by tail and the laterally spread hindlimbs showing increased tone; (5) rearing and falling back.

[15] = system: human neuroblastoma SH-SY5Y cell line; test: Fluorescence microscopy of Ca2+ and superoxide anions in MPTP-treated SH-SY5Y cells; format: cell-based; conditions: SH-SY5Y after the MPTP treatment; FIG. 6(b)

| Compound | immobility time in the forced swim test [1] | mRNA expression of SYP [2] | SMAD3 level [3] | expression level of GDF-8/Myostatin in mouse serum [5] | motility in the rotarod test (latency to fall) [6] | total distance moved in the open field test ([7]; MPTP mice, ip, FIG. 7(b)) | Ca2+ release performance [8] | mRNA expression of MAO-B [9] | tibialis anterior (TA) muscle weight [10] | extensor digitorum longus (EDL) muscle weight [10] | mRNA expression of iNOS [11] | SMAD2 level [12] | GDF-8/Myostatin level [13] | total number of convulsive seizures [14] | further results |
| --- | --- | --- | --- | --- | --- | --- | --- | --- | --- | --- | --- | --- | --- | --- | --- |
| NNC(=O)CN1C[C@@H](c2ccccc2)CC1=O [Ph-10, (R)-2-(2-oxo-4-phenylpyrrolidin-1-yl)acetohydrazide hydrochloride] | much shorter | significantly increased | effective performance | relatively lower | motility was increased | increased | far superior | significantly reduced | increased by statistically significant levels | increased by statistically significant levels | significantly reduced | effective performance | performed equally or better | – | mRNA expression of GAP-43 [4]: significantly increased |
| Cl.NC(=O)CN1C[C@H](c2ccccc2)CC1=O [Ph-20, (S)-2-(2-oxo-4-phenylpyrrolidin-1-yl)acetamide hydrochloride] | much shorter | significantly increased | effective performance | relatively lower | motility was increased | increased | far superior | – | increased by statistically significant levels | increased by statistically significant levels | – | effective performance | performed equally or better | effectively reduced | – |
| Cl.NC(=O)CN1C[C@@H](c2ccccc2)CC1=O [Ph-30, (R)-2-(2-oxo-4-phenylpyrrolidin-1-yl)acetamide hydrochloride] | much shorter | significantly increased | lowered the SMAD2 and SMAD3 levels the most | relatively lower | motility was increased | increased | far superior | significantly reduced | increased by statistically significant levels | increased by statistically significant levels | significantly reduced | lowered the SMAD2 and SMAD3 levels the most | reduced GDF-8/Myostatin level the most | significantly lower | immobility time in the forced swim test compared to the untreated control group (saline) [1]: lower immobility time than the untreated control group; Ca2+ (fluorescence microscopy) [15]: significantly increased; superoxide anions (fluorescence microscopy) [15]: significantly reduced; expression level of GDF-8/Myostatin in mouse serum, comparison among the Ph compounds (chirality) [5]: lowest expression levels; efficacy in the rotarod test compared to the Ph-20 compound ([6]; FIG. 9): approximately twice the efficacy; total distance moved relative to the MPTP alone treatment group ([7]; MPTP mice, ip, FIG. 7(b)): approximately three times higher; distance moved in the open field test ([7]; mice, ip, 5, 10 and 15 mg/kg, compared to the control group, FIG. 7(a)): increased compared to the control group at all concentrations; calcium release performance difference, (R)-type Ph-30 compared to (S)-type Ph-20 [8]: ≥ 2 times; time at which the intensity of intracellular calcium was highest ([8]; CLSM, FIG. 1 (Ph-30)): 18 s |
| NC(=O)CN1C[C@@H](c2ccccc2)CC1=O [phenylpiracetam, (R)-phenylpiracetam, reference compound] | reduced immobility time | – | – | – | – | – | – | – | – | – | – | – | – | – | – |
